{
  "source": "patent EP0551200A1",
  "about": "“Protein phosphatase inhibitors for use in therapy” (priority 1992, dated 1993)",
  "test_system": "27 hsp complex",
  "assay": "Phosphorylation of the 27 hsp complex in the cytosolic fraction of 32P-labeled fibroblasts",
  "assay_type": "cell-based, human",
  "protocol": "Human fibroblasts prelabeled with [³²P]orthophosphate (1 mCi/ml) were incubated with increasing concentrations of OA or TNF. Cytosolic fractions were prepared from the cells and subjected to two-dimensional gel electrophoresis. a, control; b, 80 nM OA; c, 160 nM OA; d, 50 units/ml TNF; and e, 320 nM OA.\nThe fibroblasts were treated with 200 nM of okadaic acid for 0 min (a), 5 min (b), 15 min (c), or 30 min (d). Cytosolic fractions were prepared from the fibroblasts and analyzed by two-dimensional gel electrophoresis.\nRadiolabeling of Cells and Cell Lysis - For labeling with [³²P]orthophosphate cells were plated onto 90 mm plastic tissue culture dishes and incubated for 3 days for the cells to become confluent. […]\nTwo-dimensional Gel Electrophoresis - The lyophilized fractions (each of approximately 12 µg) were subjected to isoelectric focusing for 18,000 V/h with pH 3-10 ampholytes using the Millipore Investigator two-dimensional electrophoresis system (Millipore). […] Molecular weight marker proteins from Sigma were detected by Coomassie Blue staining and marked on the autoradiogram. ³²P-Labeled 27 hsp complex prepared from human fibroblasts heat shocked at 43°C for 30 min was also used as a marker. […]",
  "data": [
    {"smiles": "C=C1[C@@H](O)[C@@H]2O[C@]3(CC[C@H](/C=C/[C@@H](C)[C@@H]4CC(C)=C[C@@]5(O[C@H](C[C@@](C)(O)C(=O)O)CC[C@H]5O)O4)O3)CC[C@H]2O[C@@H]1[C@@H](O)C[C@H](C)[C@H]1O[C@@]2(CCCCO2)CC[C@H]1C", "note": "[okadaic acid]", "values": [
      {"measurement": "phosphorylation state of the 27 hsp complex (in words)", "setting": "200 nM, after 30 min", "result": "hyperphosphorylated"},
      {"measurement": "concentration producing about the same increase in phosphorylation of the 27 hsp complex as 50 units/ml of TNF", "setting": "15 min", "result": "160 to 320", "unit": "nM"}
    ]}
  ]
}
